Test results: patent US10202389B2, “Pyrazolopyrimidinyl inhibitors of ubiquitin-activating enzyme” (Millennium Pharmaceuticals, Inc., priority 2012, dated 2019)

The molecules below were run against recombinant human UAE (Homo sapiens (Human), UniProt P22314) (assay: Ubiquitin Activating Enzyme (UAE) HTRF Assay). Details: read-out: % inhibition @0.111 μM.
recombinant human UAE, sequence (P22314 whole entry): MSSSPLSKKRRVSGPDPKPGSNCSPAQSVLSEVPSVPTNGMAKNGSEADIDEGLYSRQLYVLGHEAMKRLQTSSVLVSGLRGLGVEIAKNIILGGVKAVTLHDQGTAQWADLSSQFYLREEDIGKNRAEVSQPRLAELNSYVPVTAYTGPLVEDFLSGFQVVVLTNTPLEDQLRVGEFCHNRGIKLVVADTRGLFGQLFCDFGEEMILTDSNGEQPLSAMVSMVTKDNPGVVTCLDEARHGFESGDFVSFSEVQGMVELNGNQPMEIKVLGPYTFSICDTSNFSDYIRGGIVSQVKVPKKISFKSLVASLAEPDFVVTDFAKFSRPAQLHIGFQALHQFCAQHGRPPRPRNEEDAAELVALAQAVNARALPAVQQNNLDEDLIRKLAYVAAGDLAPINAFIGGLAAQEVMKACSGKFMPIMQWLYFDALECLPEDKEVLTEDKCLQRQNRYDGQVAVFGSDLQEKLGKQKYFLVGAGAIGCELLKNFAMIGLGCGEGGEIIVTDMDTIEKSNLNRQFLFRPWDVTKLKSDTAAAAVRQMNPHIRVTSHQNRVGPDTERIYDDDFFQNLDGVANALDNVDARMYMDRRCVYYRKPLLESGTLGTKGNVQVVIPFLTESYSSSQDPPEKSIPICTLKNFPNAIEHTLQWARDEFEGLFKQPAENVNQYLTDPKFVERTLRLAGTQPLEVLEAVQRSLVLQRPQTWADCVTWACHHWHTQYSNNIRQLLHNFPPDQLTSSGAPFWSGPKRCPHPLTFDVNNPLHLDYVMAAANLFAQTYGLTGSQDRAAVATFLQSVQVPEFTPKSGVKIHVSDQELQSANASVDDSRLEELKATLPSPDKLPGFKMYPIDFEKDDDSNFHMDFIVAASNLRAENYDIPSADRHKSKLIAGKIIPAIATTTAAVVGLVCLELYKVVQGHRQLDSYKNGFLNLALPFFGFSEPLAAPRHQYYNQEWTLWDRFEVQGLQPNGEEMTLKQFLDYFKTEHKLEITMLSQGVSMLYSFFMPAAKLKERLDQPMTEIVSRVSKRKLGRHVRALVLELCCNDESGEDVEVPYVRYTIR
Description: After incubation for 120 minutes, quantification of the FRET is performed on the Pherostar (BMG).
For compounds whose values are marked with an asterisk (*), mouse UAE was used. For all other compounds, human UAE was used.

NS(=O)(=O)OC[C@H]1C[C@@H](Nc2ccnc3cc(-c4cc(Cl)ccc4OC(F)(F)F)nn23)[C@H](O)[C@@H]1O (relative stereo) [Compound I-057, (rac)-((1R,2R,3S,4R)-4-(2-(5-chloro-2-(trifluoromethoxy)phenyl)pyrazolo[1,5-a]pyrimidin-7-ylamino)-2,3-dihydroxycyclopentyl)methyl rel-sulfamate] was tested. Which inhibition at 0.111 µM did it give?
The inhibition at 0.111 µM was 100%.

NS(=O)(=O)OC[C@H]1C[C@@H](Nc2ccnc3cc(-c4cccc(SC(F)(F)F)c4)nn23)[C@H](O)[C@@H]1O [Compound I-101, (s.e.)-((1R,2R,3S,4R)-2,3-dihydroxy-4-(2-(3-(trifluoromethylthio)phenyl)pyrazolo[1,5-a]pyrimidin-7-ylamino)cyclopentyl)methyl sulfamate] was tested. Which inhibition at 0.111 µM did it give?
Its inhibition at 0.111 µM is 99%.

Which inhibition at 0.111 µM does the source give for NS(=O)(=O)OC[C@H]1C[C@@H](Nc2ccnc3cc(-c4ccc(C(F)(F)F)c5cccnc45)nn23)[C@H](O)[C@@H]1O (relative stereo) [Compound I-033, (rac)-((1R,2R,3S,4R)-2,3-dihydroxy-4-(2-(5-(trifluoromethyl)quinolin-8-yl)pyrazolo[1,5-a]pyrimidin-7-ylamino)cyclopentyl)methyl rel-sulfamate] here?
Its inhibition at 0.111 µM is 98%.

Which inhibition at 0.111 µM does the source give for NS(=O)(=O)OC[C@H]1C[C@@H](Nc2ccnc3cc(-c4cccc(-c5ccccn5)c4)nn23)[C@H](O)[C@@H]1O (relative stereo) [Compound I-036, (rac)-((1R,2R,3S,4R)-2,3-Dihydroxy-4-((2-(3-(pyridin-2-yl)phenyl)pyrazolo[1,5-a]pyrimidin-7-yl)amino)cyclopentyl)methyl rel-sulfamate] here?
Its inhibition at 0.111 µM is 100%.

For NS(=O)(=O)OC[C@H]1C[C@@H](Nc2ccnc3cc(-c4cnc5ccccc5c4)nn23)[C@H](O)[C@@H]1O (relative stereo) [Compound I-025, (rac)-((1R,2R,3S,4R)-2,3-dihydroxy-4-(2-(quinolin-3-yl)pyrazolo[1,5-a]pyrimidin-7-ylamino)cyclopentyl)methyl rel-sulfamate], which inhibition at 0.111 µM is on record?
The inhibition at 0.111 µM was 93%.

How did the inhibition at 0.111 µM turn out when NS(=O)(=O)OC[C@H]1C[C@@H](Nc2ccnc3cc(-c4ccc5cc(F)ccc5c4)nn23)[C@H](O)[C@@H]1O [Compound I-113, (s.e.)-((1R,2R,3S,4R)-4-(2-(6-fluoronaphthalen-2-yl)pyrazolo[1,5-a]pyrimidin-7-ylamino)-2,3-dihydroxycyclopentyl)methyl sulfamate] was run?
The inhibition at 0.111 µM was 100%.

Which inhibition at 0.111 µM does the source give for NS(=O)(=O)OC[C@H]1C[C@@H](Nc2ccnc3cc(-c4cccc5sccc45)nn23)[C@H](O)[C@@H]1O (relative stereo) [Compound I-061, (rac)-((1R,2R,3S,4R)-4-((2-(Benzo[b]thiophen-4-yl)pyrazolo[1,5-a]pyrimidin-7-yl)amino)-2,3-dihydroxycyclopentyl)methyl rel-sulfamate] here?
The inhibition at 0.111 µM was 100%.

For Cc1ccc(Cl)cc1-c1cc2nccc(N[C@@H]3C[C@H](COS(N)(=O)=O)[C@@H](O)[C@H]3O)n2n1 (relative stereo) [Compound I-021, (rac)-((1R,2R,3S,4R)-4-(2-(5-chloro-2-methylphenyl)pyrazolo[1,5-a]pyrimidin-7-ylamino)-2,3-dihydroxycyclopentyl)methyl rel-sulfamate], which inhibition at 0.111 µM is on record?
The inhibition at 0.111 µM was 97%.

How did the inhibition at 0.111 µM turn out when NS(=O)(=O)OC[C@H]1C[C@@H](Nc2ccnc3cc(-c4ccnc(C(F)(F)F)c4)nn23)[C@H](O)[C@@H]1O (relative stereo) [Compound I-059, (rac)-((1R,2R,3S,4R)-2,3-dihydroxy-4-(2-(2-(trifluoromethyl)pyridin-4-yl)pyrazolo[1,5-a]pyrimidin-7-ylamino)cyclopentyl)methyl rel-sulfamate] was run?
Its inhibition at 0.111 µM is 94%.

How did the inhibition at 0.111 µM turn out when NS(=O)(=O)OC[C@H]1C[C@@H](Nc2ccnc3cc(-c4cncc5ccccc45)nn23)[C@H](O)[C@@H]1O (relative stereo) [Compound I-018, (rac)-((1R,2R,3S,4R)-2,3-dihydroxy-4-(2-(isoquinolin-4-yl)pyrazolo[1,5-a]pyrimidin-7-ylamino)cyclopentyl)methyl rel-sulfamate] was run?
The inhibition at 0.111 µM was 100%.

Which inhibition at 0.111 µM does the source give for NS(=O)(=O)OC[C@H]1C[C@@H](Nc2ccnc3cc(-c4ccc(C(F)(F)F)s4)nn23)[C@H](O)[C@@H]1O (relative stereo) [Compound I-060, (rac)-((1R,2R,3S,4R)-2,3-Dihydroxy-4-((2-(5-(trifluoromethyl)thiophen-2-yl)pyrazolo[1,5-a]pyrimidin-7-yl)amino)cyclopentyl)methyl rel-sulfamate] here?
Its inhibition at 0.111 µM is 89%.

CC(CO)(CCl)c1cccc(-c2cc3nccc(N[C@@H]4C[C@H](COS(N)(=O)=O)[C@@H](O)[C@H]4O)n3n2)c1 (relative stereo) [Compound I-123, (rac)-{(1R,2R,3S,4R)-4-[(2-{3-[2-chloro-1-(hydroxymethyl)-1-methylethyl]phenyl}pyrazolo[1,5-a]pyrimidin-7-yl)amino]-2,3-dihydroxycyclopentyl}methyl rel-sulfamate] was tested. Which inhibition at 0.111 µM did it give?
Its inhibition at 0.111 µM is 100%.

For COc1ccc(-c2cc3nc(Cl)cc(N[C@@H]4C[C@H](COS(N)(=O)=O)[C@@H](O)[C@H]4O)n3n2)cc1 (relative stereo) [Compound I-014, (rac)-[(1R,2R,3S,4R)-4-{[5-chloro-2-(4-methoxyphenyl)pyrazolo[1,5-a]pyrimidin-7-yl]amino}-2,3-dihydroxycyclopentyl]methyl rel-sulfamate], which inhibition at 0.111 µM is on record?
Its inhibition at 0.111 µM is 30%.

How did the inhibition at 0.111 µM turn out when NS(=O)(=O)OC[C@H]1C[C@@H](Nc2ccnc3cc(-c4ccc(SC(F)(F)F)cc4)nn23)[C@H](O)[C@@H]1O (relative stereo) [Compound I-080, (rac)-((1R,2R,3S,4R)-2,3-dihydroxy-4-(2-(4-(trifluoromethylthio)phenyl)pyrazolo[1,5-a]pyrimidin-7-ylamino)cyclopentyl)methyl rel-sulfamate] was run?
Its inhibition at 0.111 µM is 80%.

For CCc1ccc2sc(-c3cc4nccc(N[C@@H]5C[C@H](COS(N)(=O)=O)[C@@H](O)[C@H]5O)n4n3)cc2c1 (relative stereo) [Compound I-095, (rac)-((1R,2R,3S,4R)-4-(2-(5-ethylbenzo[b]thiophen-2-yl)pyrazolo[1,5-a]pyrimidin-7-ylamino)-2,3-dihydroxycyclopentyl)methyl rel-sulfamate], which inhibition at 0.111 µM is on record?
The inhibition at 0.111 µM was 70%.

With NS(=O)(=O)OC[C@H]1C[C@@H](Nc2ccnc3cc(-c4cc5ccccc5[nH]4)nn23)[C@H](O)[C@@H]1O (relative stereo) [Compound I-024, (rac)-((1R,2R,3S,4R)-4-(2-(1H-indol-2-yl)pyrazolo[1,5-a]pyrimidin-7-ylamino)-2,3-dihydroxycyclopentyl)methyl rel-sulfamate] as the molecule, how does the inhibition at 0.111 µM read?
The inhibition at 0.111 µM was 98%.

How did the inhibition at 0.111 µM turn out when NS(=O)(=O)OC[C@H]1C[C@@H](Nc2cc(Cl)nc3cc(-c4ccccc4)nn23)[C@H](O)[C@@H]1O (relative stereo) [Compound I-006, (rac)-{(1R,2R,3S,4R)-4-[(5-chloro-2-phenylpyrazolo[1,5-a]pyrimidin-7-yl)amino]-2,3-dihydroxycyclopentyl}methyl rel-sulfamate] was run?
Its inhibition at 0.111 µM is 23%.

How did the inhibition at 0.111 µM turn out when NS(=O)(=O)OC[C@H]1C[C@@H](Nc2ccnc3cc(-c4cccc5cccnc45)nn23)[C@H](O)[C@@H]1O (relative stereo) [Compound I-017, (rac)-((1R,2R,3S,4R)-2,3-Dihydroxy-4-((2-(quinolin-8-yl)pyrazolo[1,5-a]pyrimidin-7-yl)amino)cyclopentyl)methyl rel-sulfamate] was run?
Its inhibition at 0.111 µM is 100%.

For NS(=O)(=O)OC[C@H]1C[C@@H](Nc2ccnc3cc(-c4cccc5c4oc4ccccc45)nn23)[C@H](O)[C@@H]1O [Compound I-103, (s.e.)-((1R,2R,3S,4R)-4-(2-(dibenzo[b,d]furan-4-yl)pyrazolo[1,5-a]pyrimidin-7-ylamino)-2,3-dihydroxycyclopentyl)methyl sulfamate], which inhibition at 0.111 µM is on record?
The inhibition at 0.111 µM was 100%.

For NS(=O)(=O)OC[C@H]1C[C@@H](Nc2ccnc3cc(-c4cccc(-c5ccccc5)c4)nn23)[C@H](O)[C@@H]1O (relative stereo) [Compound I-003, (rac)((1R,2R,3S,4R)-4-(2-(biphenyl-3-yl)pyrazolo[1,5-a]pyrimidin-7-ylamino)-2,3-dihydroxycyclopentyl)methyl rel-sulfamate], which inhibition at 0.111 µM is on record?
The inhibition at 0.111 µM was 100%.

Which inhibition at 0.111 µM does the source give for CC1(C)COc2c(-c3cc4nccc(N[C@@H]5C[C@H](COS(N)(=O)=O)[C@@H](O)[C@H]5O)n4n3)cccc21 (relative stereo) [Compound I-023, (rac)-((1R,2R,3S,4R)-4-(2-(3,3-dimethyl-2,3-dihydrobenzofuran-7-yl)pyrazolo[1,5-a]pyrimidin-7-ylamino)-2,3-dihydroxycyclopentyl)methyl rel-sulfamate] here?
Its inhibition at 0.111 µM is 96%.

For NS(=O)(=O)OC[C@H]1C[C@@H](Nc2ccnc3cc(-c4ccnc5cc(Cl)ccc45)nn23)[C@H](O)[C@@H]1O (relative stereo) [Compound I-039, (rac)-((1R,2R,3S,4R)-4-(2-(7-chloroquinolin-4-yl)pyrazolo[1,5-a]pyrimidin-7-ylamino)-2,3-dihydroxycyclopentyl)methyl rel-sulfamate], which inhibition at 0.111 µM is on record?
Its inhibition at 0.111 µM is 100%.

With Cc1sc(-c2ccccc2)nc1-c1cc2nccc(N[C@@H]3C[C@H](COS(N)(=O)=O)[C@@H](O)[C@H]3O)n2n1 (relative stereo) [Compound I-038, (rac)-[(1R,2R,3S,4R)-2,3-dihydroxy-4-{[2-(5-methyl-2-phenyl-1,3-thiazol-4-yl)pyrazolo[1,5-a]pyrimidin-7-yl]amino}cyclopentyl]methyl rel-sulfamate] as the molecule, how does the inhibition at 0.111 µM read?
The inhibition at 0.111 µM was 100%.

How did the inhibition at 0.111 µM turn out when COc1ccc(C(C)(C)C)cc1-c1cc2nccc(N[C@@H]3C[C@H](COS(N)(=O)=O)[C@@H](O)[C@H]3O)n2n1 (relative stereo) [Compound I-063, (rac)-((1R,2R,3S,4R)-4-{[2-(5-tert-butyl-2-methoxyphenyl)pyrazolo[1,5-a]pyrimidin-7-yl]amino}-2,3-dihydroxycyclopentyl)methyl rel-sulfamate] was run?
Its inhibition at 0.111 µM is 100%.

For NS(=O)(=O)OC[C@H]1C[C@@H](Nc2ccnc3cc(-c4ccc5ccccc5c4)nn23)[C@H](O)[C@@H]1O (relative stereo) [Compound I-016, (rac)-((1R,2R,3S,4R)-2,3-dihydroxy-4-(2-(naphthalen-2-yl)pyrazolo[1,5-a]pyrimidin-7-ylamino)cyclopentyl)methyl rel-sulfamate], which inhibition at 0.111 µM is on record?
Its inhibition at 0.111 µM is 99%.
